Source: patent US20220339260A1, “METHOD FOR PRODUCING INSULIN-PRODUCING CELL USING DIHYDROINDOLIZINONE DERIVATIVES” (TOKYO INSTITUTE OF TECHNOLOGY, priority 2019, published 2022)

Tested on: human iPS cell Toe strain
Experiment: Effect to promote differentiation from human iPS cells into insulin-producing cells (insulin-positive cell rate, Reference Example 1)
Format: cell-based
Parameters: key to Activity: the sum of activity values at the two concentrations was obviously higher than the control untreated with compounds while being lower than the positive control was expressed as +; the sum was equivalent to the positive control was expressed as ++; the sum was higher than the positive control was expressed as +++
Details: activity intensity: sum of activity values (increment in insulin-positive cell rate) at 2 μM and 10 μM compared with positive control (compound of Synthesis Example 1)
Excerpt: The evaluation system of the effect (efficacy) to promote differentiation from human iPS cells into insulin-producing cells was constructed with reference to known information (Non Patent Document 6). Further, the medium used in each differentiation stage was also produced with reference to known information (differentiation media A to E (Media A to E) described in Non Patent Document 6 were used respectively for stages 1 to 5; however, a medium free from GLP-1 receptor agonist and nicotinamide was used as differentiation medium E).
In order to evaluate the efficacy of each compound, the compound of Synthesis Example 1 was used as a positive control, and dimethylsulfoxide (DMSO) (SIGMA, D2650) with a final concentration of 0.1% was used as a control untreated with compounds. Each compound was dissolved in DMSO, and two types of compound solutions were prepared so as to have final concentrations of 2 μM and 10 μM after the compound was added to the medium. In the following evaluation, the compound solutions were added to the medium to 0.1% that is the final concentration of DMSO.
First, induction from human iPS cell Toe strain (National Institutes of Biomedical Innovation, Health and Nutrition) into cells on day 7 of culture (2 days after replacement with differentiation medium C (cells in the differentiation process from FOXA2-positive primitive gut tube cells into PDX1-positive pancreatic progenitor cells)) was performed according to the method of Non Patent Document 6 for “inducing differentiation from human iPS cells into pancreatic β cells”, and the cells were collected and thereafter stored in liquid nitrogen using Bambanker (NIPPON Genetics Co, Ltd.) at 1×10^7 cells/mL/tube, to produce a cell stock for evaluation. The cell stock was dissolved at the start of the evaluation of efficacy, suspended in differentiation medium C for stage 3 (DMEM high glucose (Life technologies, 11965092), 0.25 μM SANT-1, 0.1 μM LDN193189 (Stemgent, 04-0074), 10 μM SB431542, 2 μM Retinoic acid (Stemgent, 04-0021), 1% B27 serum free supplement (Life technologies, 17504044) and thereafter seeded in a 96-well plate (Corning, #3340) coated with Synthemax II (Corning, #5656) at 1×10^5 cells/well. After culturing for 2 days, the medium was removed, and new differentiation medium C for stage 3 with the compound or only DMSO added was added thereto at 100 μL/well. After culturing for 2 days, the medium was removed, and new differentiation medium D for stage 4 (DMEM high glucose, 0.1 μM LDN193189, 5 μM TGF-β type I receptor kinase inhibitor II (Calbiochem 616452), 0.3 μM (−)-indolactam V (Enzo life science ALX-420-011-C300), 1% B27 serum free supplement) with the compound or only DMSO added was added thereto at 100 μL/well. After culturing for 2 to 3 days, the medium was removed, and new differentiation medium E for stage 5 (GLP-1 receptor agonist and nicotinamide-free; Knockout […] (Life technologies, 12660012), 1% B27 serum free supplement) with the compound or only DMSO added was added thereto at 200 μL/well. After culturing for 2 days, the medium was removed, and a 4% paraformaldehyde phosphorus acid buffer (Wako, 163-20145) was added thereto at 150 μL/well and left standing for 30 to 60 minutes at room temperature to fix the cells. A phosphorus acid buffer (PBS) (Takara, T9181) containing 1% Triton X-100 (Sigma, T8787) was left standing for 15 minutes at room temperature, then washed with PBS-T (Takara, T9183), and was blocked for 1 hour using 20% Blocking One (Nacalai tesque, Tokyo, Japan) diluted with PBS-T at room temperature. After the removal of Blocking One, guinea pig anti-insulin antibody (Abcam, ab7842) diluted 200-fold with 20% Blocking One was added thereto at 50 μL/well, followed by standing at 4° C. overnight. […]

Compound	Activity
O=C1CCC(C(=O)Nc2ncc(-c3ccc(Br)cc3)s2)n2cccc21 (stereo not drawn) [Example 47]	++
O=C1CCC(C(=O)Nc2ncc(-c3ccc(OC(F)(F)F)c(CO)c3)s2)n2cccc21 (stereo not drawn) [Example 31]	+
CC1(C(=O)Nc2ncc(-c3ccc4c(c3)OC(F)(F)O4)s2)CCC(=O)c2cccn21 (stereo not drawn) [Example 68]	++
O=C1CCC(C(=O)Nc2ncc(-c3ccccc3)s2)n2cccc21 (stereo not drawn) [Example 1]	++
Cc1cc(-c2ccc(OC(F)(F)F)cc2)ccc1NC(=O)C1CCC(=O)c2cccn21 (stereo not drawn) [Example 81]	+
Cc1nc(NC(=O)C2CCC(=O)c3cccn32)sc1-c1ccc(OC(F)(F)F)cc1 (stereo not drawn) [Example 36]	+++
O=C1CCC(C(=O)Nc2ncc(-c3ccc(C(F)(F)F)cc3)s2)n2cccc21 (stereo not drawn) [Example 21]	+++
O=C1CCC(C(=O)Nc2ncc(-c3ccc(OC(F)F)cc3)s2)n2cccc21 (stereo not drawn) [Example 39]	+++
Cc1cc(OC(F)(F)F)ccc1-c1cnc(NC(=O)C2CCC(=O)c3cccn32)s1 (stereo not drawn) [Example 28]	+++
Cc1nc(NC(=O)C2CCC(=O)c3cccn32)sc1-c1ccc(OCc2ccccc2)c(F)c1 (stereo not drawn) [Example 85]	+++
Cc1nc(NC(=O)C2CCC(=O)c3cccn32)sc1C1=CCN(C(=O)OC(C)(C)C)CC1 (stereo not drawn) [Example 90]	+++
O=C(c1ccccc1)c1ccc(-c2cnc(NC(=O)C3CCC(=O)c4cccn43)s2)cc1 (stereo not drawn) [Example 95]	+++
CC(C)(C)Oc1ccc(-c2ccc(NC(=O)C3CCC(=O)c4cccn43)c(F)c2)cc1 (stereo not drawn) [Example 80]	+
O=C1CCC(C(=O)Nc2ccc(-c3ccc(OC(F)(F)F)c(Cl)c3)cc2F)n2cccc21 (stereo not drawn) [Example 79]	+
CC(C)NC(=O)N1CC=C(c2cnc(NC(=O)C3CCC(=O)c4cccn43)s2)CC1 (stereo not drawn) [Example 98]	++
CC(C)(C)OC(=O)N1CC=C(c2cnc(NC(=O)C3CCC(=O)c4cccn43)s2)C1 (stereo not drawn) [Example 53]	++
O=C1CCC(C(=O)Nc2ncc(-c3ccc(OCc4ccccc4)cc3)s2)n2cccc21 (stereo not drawn) [Example 32]	+++
Cc1nc(NC(=O)C2CCC(=O)c3cccn32)sc1-c1ccc(OCC(F)(F)F)cc1 (stereo not drawn) [Example 88]	+++
O=C1CCC(C(=O)Nc2ccc(-c3ccc(OC(F)(F)F)c(Cl)c3)cc2)n2cccc21 (stereo not drawn) [Example 76]	+
CC(C)Oc1ccc(-c2cnc(NC(=O)C3CCC(=O)c4cccn43)s2)cc1 (stereo not drawn) [Example 33]	+++

Compound	Activity
CC(C)c1nc(NC(=O)C2CCC(=O)c3cccn32)sc1-c1ccc(OC(F)(F)F)cc1 (stereo not drawn) [Example 96]	+
CN(C)C(=O)c1ccc(-c2cnc(NC(=O)C3CCC(=O)c4cccn43)s2)cc1 (stereo not drawn) [Example 3]	+
Cc1nc(NC(=O)C2CCC(=O)c3cccn32)sc1-c1ccc(OC(C)(C)C)cc1 (stereo not drawn) [Example 35]	+++
O=C1CCC(C(=O)Nc2nc3ccc(-c4ccc(OC(F)F)cc4)cc3s2)n2cccc21 (stereo not drawn) [Example 60]	++
COC(=O)c1nc(NC(=O)C2CCC(=O)c3cccn32)sc1-c1ccc(OCC(F)(F)F)cc1 (stereo not drawn) [Example 99]	++
O=C1CCC(C(=O)Nc2ncc(-c3cccc(Cl)c3)s2)n2cccc21 (stereo not drawn) [Example 13]	++
Cc1nc(NC(=O)C2CCC(=O)c3cccn32)sc1-c1ccccc1 (stereo not drawn) [Example 34]	++
O=C1CCC(C(=O)Nc2ncc(-c3ccc4ccccc4c3)s2)n2cccc21 (stereo not drawn) [Example 24]	+
CC(C)COc1ccc(-c2cnc(NC(=O)C3CCC(=O)c4cccn43)s2)cc1 (stereo not drawn) [Example 49]	+++
O=C1CCC(C(=O)Nc2ccc(-c3ccc(OC(F)(F)F)cc3)cn2)n2cccc21 (stereo not drawn) [Example 82]	+
O=C1CCC(C(=O)Nc2nc3ccc(-c4ccc(OC(F)(F)F)cc4)cc3s2)n2cccc21 (stereo not drawn) [Example 59]	+++
COC(=O)c1ccc(-c2cnc(NC(=O)C3CCC(=O)c4cccn43)s2)cc1 (stereo not drawn) [Example 2]	++
Cc1cccc(-c2cnc(NC(=O)C3(C)CCC(=O)c4cccn43)s2)c1 (stereo not drawn) [Example 67]	++
Cc1ccc(-c2ccc(-c3cnc(NC(=O)C4CCC(=O)c5cccn54)s3)cc2)cc1 (stereo not drawn) [Example 23]	+
Cc1cc(-c2cnc(NC(=O)C3(C)CCC(=O)c4cccn43)s2)ccc1OC(F)(F)F (stereo not drawn) [Example 70]	++
O=C1CCC(C(=O)Nc2ncc(-c3ccc(OCC(F)(F)F)cc3)s2)n2cccc21 (stereo not drawn) [Example 45]	+++
Cc1nc(C)c(-c2cnc(NC(=O)C3CCC(=O)c4cccn43)s2)s1 (stereo not drawn) [Example 55]	+
O=C1CCC(C(=O)Nc2ncc(-c3ccc(Oc4ccccc4)cc3)s2)n2cccc21 (stereo not drawn) [Example 46]	+++
O=C1CCC(C(=O)Nc2ncc(-c3ccccc3Cl)s2)n2cccc21 (stereo not drawn) [Example 14]	+
